The structures appear in SMILES notation.

Experiment [1] addresses T1, VioC (Streptomyces vinaceus, UniProt Q6WZB0).
T1 construct: codon-optimized, pNIC28-Bsa4, E. coli T7 LysY; His-tag cleaved with TEV protease; SEC purified; Fe(II) enzyme, microcrystals
The experiment in a line: room-temperature serial crystallography. The class given is binding. The following applies: Fe(II).

The target in experiment [2] is T2, IPNS (Aspergillus nidulans, UniProt P05326).
T2 construct: gene ipnA; recombinant, purified as in Roach et al; Fe(II) enzyme, microcrystals
T2 sequence (P05326 1-331): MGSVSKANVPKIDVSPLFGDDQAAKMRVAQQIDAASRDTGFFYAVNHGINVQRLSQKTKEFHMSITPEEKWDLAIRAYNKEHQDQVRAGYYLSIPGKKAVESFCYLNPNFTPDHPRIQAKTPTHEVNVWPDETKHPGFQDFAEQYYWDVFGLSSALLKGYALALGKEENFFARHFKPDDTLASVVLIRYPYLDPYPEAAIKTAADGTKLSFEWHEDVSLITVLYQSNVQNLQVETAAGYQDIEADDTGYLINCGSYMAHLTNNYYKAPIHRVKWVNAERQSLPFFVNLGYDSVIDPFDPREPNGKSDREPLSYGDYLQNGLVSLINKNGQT
The experiment in a line: room-temperature serial crystallography. The note with it: anaerobic, Fe(II); cysteinyl sulfur ligates Fe. The class given is binding.

T1 sequence (Q6WZB0 whole entry): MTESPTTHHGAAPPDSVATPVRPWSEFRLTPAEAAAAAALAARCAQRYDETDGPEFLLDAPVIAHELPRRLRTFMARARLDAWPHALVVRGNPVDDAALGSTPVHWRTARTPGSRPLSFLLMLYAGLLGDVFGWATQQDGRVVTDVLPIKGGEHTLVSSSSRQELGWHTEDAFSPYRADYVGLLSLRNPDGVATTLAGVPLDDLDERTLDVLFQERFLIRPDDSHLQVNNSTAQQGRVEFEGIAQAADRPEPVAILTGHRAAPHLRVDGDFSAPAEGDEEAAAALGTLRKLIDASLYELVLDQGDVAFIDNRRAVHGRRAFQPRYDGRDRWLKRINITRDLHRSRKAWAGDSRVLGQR

Consider `O=C(O)CCC(=O)C(=O)O` [2OG], for which, in experiment [1] (anaerobic, L-arginine, bidentate to Fe), the room-temperature serial crystallography entry was “the 2OG ligates the Fe in a bidentate manner via its oxalyl group”.

With `N=C(N)NCC[C@H](O)[C@H](N)C(=O)O` [(3S)-OH-Arg], in experiment [1] (formed in crystallo after 1 h air exposure, succinate, active site), the room-temperature serial crystallography entry was “the (3S)-OH-Arg is positioned to coordinate Fe via its (3S)-hydroxyl group”.

Regarding `CC(C)[C@@H](NC(=O)[C@H](CS)NC(=O)CCC[C@H](N)C(=O)O)C(=O)O` [ACV], the room-temperature serial crystallography result in experiment [2] was “completed by a water molecule and the cysteinyl sulfur of the substrate ACV”.

On to `N=C(N)NCCC[C@H](N)C(=O)O` [L-arginine], for which the room-temperature serial crystallography result in experiment [1] (anaerobic, 2OG, active site) is “VioC:Fe:2OG:Arg substrate complex structure reported in this study (PDB entry 6y0n)”.

For the compound `O=C(O)CCC(=O)O` [succinate], in experiment [1] (formed in crystallo after 1 h air exposure, (3S)-OH-Arg, monodentate to Fe), the room-temperature serial crystallography entry is “succinate is bound in a monodentate manner, also trans to His168”.

These data come from article PMC7467159, “Anaerobic fixed-target serial crystallography” (IUCrJ, 2020).
